Measured values reported in patent US12484608B2, “Nutritional composition and infant formula for promoting de novo myelination” (SOCIETE DES PRODUITS NESTLE S.A., priority 2015, dated 2025).

Assays:
brain myelination = assay: Cross-sectional correlation of infant formula nutrient content with brain myelin content (mcDESPOT MRI, myelin water fraction); assay type: in vivo, human; conditions: formula-fed children up to 5 years
From the text: MRI (Magnetic Resonance Imaging): MRI brain scans of infants and children between 0 and 5 years were acquired using a white matter imaging technique. This technique provides a quantitative measure, the Myelin Water Fraction (MWF), which is a surrogate marker of myelin content in the brain. When mapped as a function of time across early childhood, myelination trajectories can be generated.
Each infant was scanned using the mcDESPOT (multicomponent Driven Equilibrium Single Pulse Observation of T1 and T2) white matter imaging technique Deoni et al. (Magn. Reson. Med. 2008, 60:1372-1387), which provides a quantitative measure of the myelin water fraction (MWF)—a measure of myelin content—at each point throughout the brain. All infants were scanned during natural (i.e. non-sedated) sleep using acoustically-muffled mcDESPOT imaging protocols. Total imaging times ranged from 19 minutes for the youngest toddlers to 24 minutes for the older 4 year-old children.
Following image alignment, non-brain signal removal, and correction for main and transmit magnetic field (B0 and B1) inhomogeneities, a three-pool signal model (comprising the myelin-associated water; intra-extra axonal water; and a non-exchanging free-water pool) was fit to the mcDESPOT data to derive voxel-wise MWF maps.
Each child's map was then non-linearly aligned to a study specific template. White matter masks, corresponding to 5 bilateral regions (frontal, temporal, occipital, parietal, and cerebellar WM) as well as the body, genu, and splenium of the corpus callosum were created from common databases, registered to the common template, and superimposed onto each child's MWF map. Mean values for each region were then determined for each child and used for subsequent developmental analysis and trajectory modeling.
From the cohort described above, children up to 5 years of age that were fed different infant formulas during infancy were included in a large correlation analysis to examine the relationship between formula nutrient composition and brain myelination. The 5 most frequently used formulas in that cohort were analyzed for their nutritional composition. A single general linear model (GLM) was constructed that modeled all quantified nutrients and child age.
Spearman rank correlations were then calculated between the nutrient content and myelin content value (adjusted for child age) at each image voxel, or point within the brain. Significance was defined as p<0.05 corrected for type 1 error using a cluster based correction approach. An association or trend was defined as p<0.15. […] To reduce the number of nutritional components in the model, we examined the inter-nutritional correlation. Using a conservative threshold of 0.9, we excluded nutritional components that were highly correlated with each other across the various formulas.

[1] = tested on: neural progenitor cell (NPCs); assay: Neurosphere counts in 96-well plates; assay type: cell-based, mouse; conditions: control 103
Experimental: Generation of neural progenitor cell (NPCs) libraries:
dissociation of E14 mouse neocortex
Plating Cells in 96-Well Plates for Neurosphere Counts and Diameters Only
3-4 mLs of cells were taken out of the tilted plate and add to a 15 ml conical. Some of the remaining media was used to rinse down the plate. All remaining media was drawn up and put into a 15 ml conical tube, and Spun at 130G for 5 min. All media was removed. The cells were gently resuspended in 5 mls of warm PBS, spun again. PBS was then removed and the cells were then gently resuspended in 500 μl of Accutase(Corning™ Accutase™ Cell Detachment Solution, #25058CI). The cells were then Pipetted gently with a 1000p tip to break up pellet, and then they were placed in a shaking water bath for 5-10 minutes, after which time they were swirled by hand frequently.
1 ml was taken off to count cells. The cells were spun again. Media was removed from the cell pellet. 1 mls of prepared media (no GF) was added. The cells were pipetted with a 1000 ul pipette. Cell dilutions (24,000
cells/well) in 250 μL of appropriate media were made. Cells were swirled daily and grown for 2 days.
1. The cells were fixed in the hood. For fixation and subsequent immunohistochemical analysis 100 ul of medium was removed and 100 ul 4% PFA in 1×PBS was added to fix the cells whilst counting the neurospheres by hand, then the cells were washed twice with 1×PBS for 5 min, and left in 1×PBS, wrapped in foil and left overnight at 4° C., or Dapi staining was carried out. 100 uL of PBS was removed and 100 uL
in AB staining solution for five min. Imaging was carried out using a GE Cytell imager or LSM 710, Zeiss confocal microscope and the diameters of neurospheres with ImageJ software (National Institutes of Health) was analysed.

[2] = tested on: neural progenitor cell (NPCs); assay: Monolayer culture NPC proliferation assay; assay type: cell-based, mouse; conditions: control 262
Experimental: Monolayer Culture NPC Proliferation Assay (Incorporation of EdU—S Phase Marker
After 24 h, it was ensured that cells had attached to the plate then the medium was carefully removed. 500 μL of compound media plus GF.was added. The cells were cultured for 3 days in appropriate media.
EDU incorporation was measured using Click-iT® EdU Alexa Fluor® 555 Imaging Kit
At the end of day 3 EdU was added to each well at 10 μM for 30 minutes prior to fixation.
For fixation and subsequent immunohistochemical analysis, the medium was removed, the cells were rinsed once with 1×PBS for 5 min, and fixed with 4% PFA in 1×PBS for 15 min at 4° C., then the cells were washed twice with 1×PBS for 5 min, left in 1×PBS, wrapped in foil and leave overnight at 4° C., or staining was proceeded with.
serum, 1×PBS, and 0.1% triton X) added to cover the bottom, the block was kept at room temp for 1 hour. The cells were stained for EDU. The cells were Incubated for 30 min at room temp, in the dark. The cells were washed with 1×PBS and stained with Dapi 1:5000 ul for 15 min. The cells were washed once with 1×PBS, then left in PBS at 4° C., or Imaged immediately using a GE Cytell imager (cell viability

[3] = high dose sphingomyelin (Dose 3: 1 μm)
[4] = low dose sphingomyelin (Dose 1: 10 nM)
[5] = med dose sphingomyelin (Dose 2: 100 nM)

Compound | association with myelination (myelin water fraction) over time in the brain (brain myelination) | further results
vitamin B12 | an association with myelination (myelin water fraction) was observed over time in the brain | –
[P] [phosphorus] | an association with myelination (myelin water fraction) was observed over time in the brain | –
[Ca+2] [calcium] | an association with myelination (myelin water fraction) was observed over time in the brain | –
phosphatidylcholine | an association with myelination (myelin water fraction) was observed over time in the brain | –
[Mg+2] [magnesium] | an association with myelination (myelin water fraction) was observed over time in the brain | –
[Zn] [zinc] | an association with myelination (myelin water fraction) was observed over time in the brain | –
phosphatidylinositol | an association with myelination (myelin water fraction) was observed over time in the brain | –
sphingomyelin | an association with myelination (myelin water fraction) was observed over time in the brain | number of neurospheres, Average (Mean) [1, 3]: 219; number of neurospheres, Average (Mean) [1, 4]: 94; number of neurospheres, Average (Mean) [1, 5]: 121; neuronal proliferation, DAPI [2, 3]: 305; neuronal proliferation, DAPI [2, 4]: 280; neuronal proliferation, DAPI [2, 5]: 314
iron | an association with myelination (myelin water fraction) was observed over time in the brain | –
CCCCC/C=C\C/C=C\C/C=C\C/C=C\CCCC(=O)O [AA, arachidonic acid] | an association with myelination (myelin water fraction) was observed over time in the brain | –
